In PubChem BioAssay (NCI):
Where “and” joins values, the source holds several entries; their conditions need not be identical. Identical values can stand only once.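 Assay format: 96-well plates, 48-hour exposure. Here, GI50 denotes the concentration required for 50% inhibition of growth. At the TGI there is no net growth.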

Legend:
Experiment in all cases: DTP human tumour cell line panel, 48 h
T-47D breast = tested on: T-47D breast
SF-268 CNS = tested on: SF-268 CNS
UACC-257 melanoma = tested on: UACC-257 melanoma
HL-60(TB) leukemia = tested on: HL-60(TB) leukemia
RPMI-8226 leukemia = tested on: RPMI-8226 leukemia
SK-MEL-28 melanoma = tested on: SK-MEL-28 melanoma
UACC-62 melanoma = tested on: UACC-62 melanoma
SK-MEL-5 melanoma = tested on: SK-MEL-5 melanoma
NCI-H522 lung = tested on: NCI-H522 lung
HOP-62 NSCLC = tested on: HOP-62 NSCLC

Compound	TGI (T-47D breast) [µM]	TGI (SF-268 CNS) [µM]	GI50 (UACC-257 melanoma)	GI50 (HL-60(TB) leukemia)	TGI (RPMI-8226 leukemia) [µM]	GI50 (SK-MEL-28 melanoma) [µM]	TGI (SK-MEL-28 melanoma)	TGI (UACC-62 melanoma) [µM]	TGI (SK-MEL-5 melanoma)	TGI (NCI-H522 lung)	TGI (HOP-62 NSCLC)	GI50 (T-47D breast) [µM]	GI50 (SF-268 CNS) [µM]	TGI (UACC-257 melanoma) [µM]	TGI (HL-60(TB) leukemia) [µM]	GI50 (RPMI-8226 leukemia) [µM]	GI50 (UACC-62 melanoma) [µM]	GI50 (SK-MEL-5 melanoma) [µM]	GI50 (NCI-H522 lung) [µM]	GI50 (HOP-62 NSCLC) [µM]
O=C1/C(=C/c2ccc(Cl)cc2)CNC/C1=C\c1ccc(Cl)cc1	36.1	3.77	1.78 µM and 7.7 µM	2.42 µM and 9.41 µM	0.722	1.3	3.74 µM and 2.96 µM	> 19.9	22.1 µM and 11.3 µM	4.4 µM and 4.75 µM	12.5 µM and 7.03 µM	–	–	–	–	–	–	–	–	–
COC(=O)c1oc2c(C(=O)/C=C/c3ccc(OC)cc3)c(OCCN(C)C)ccc2c1C	16.8	20.5	14.1 µM	1.88 µM	20.5	7.73	20.9 µM	27.1	22.4 µM	20.2 µM	38.7 µM	3.1	5.63	29.2	6.01	3.83	12.3	10.6	5.39	20.5
CCN(Cc1cccc(Cl)c1)c1ccc(CO)c(Cl)c1	1.14	28	0.134 µM	3.93 µM	28.1	14.5	28.7 µM	1.07	19.9 µM	27.1 µM	16.3 µM	0.205	13.8	0.404	20.9	4.35	0.116	5.73	12.8	2.09
CCCCCC/C=C\CCCCCCCCCC1=C(CN2CCN(C)CC2)C(=O)C=C(OC)C1=O	4.81	19.7	–	–	3.9	–	28.2 µM	25.5	19.3 µM	3.01 µM	30.7 µM	–	–	28.6	2.97	–	–	–	–	–
C/C(=C(\c1ccc(OCCN2CCCCCC2)cc1)c1ccc(OC(=O)c2ccccc2)cc1)c1ccc(Cl)cc1	7.47	9.7	5.34 µM	3.35 µM	10.2	4.33	9.02 µM	11.1	8.84 µM	10.6 µM	8.95 µM	1.76	3.49	10.4	11.5	3.03	5.1	4.55	5.27	4.35
C=CCC(N[C@H](CO)c1ccccc1)c1cn(Cc2ccccc2Cl)c(=O)n(Cc2ccccc2Cl)c1=O (stereo not given in full)	> 100	> 100	23.3 µM	5.87 µM	12.5	19.7	39.5 µM	27.1	30.1 µM	89.9 µM	29.9 µM	> 100	18.6	53.4	34	3.73	7.64	14.6	14.3	12
C/C=C1/CC(C)C(C)(O)C(=O)OCC2C(O)CN3CCC(OC1=O)C23 (stereo not given)	> 100	> 100	–	–	> 100	–	–	> 100	> 100 µM	> 100 µM	> 100 µM	–	–	> 100	> 100	–	–	–	–	–
CC(=O)C1=C(O)C=C2Oc3c(C(=O)/C=C/c4cc(Cl)cc(Cl)c4)c(O)c(C)c(O)c3[C@]2(C)C1=O	1.36	3.38	0.535 µM	0.371 µM	1.14	0.637	2.76 µM	1.62	1.05 µM	0.919 µM	1.67 µM	0.435	0.67	2.5	0.87	0.452	0.434	0.424	0.334	0.48
Cn1cc(-c2cnn3c(N)c(Br)c(C4CCCNC4)nc23)cn1 (stereo not given)	> 100	> 100	17.8 µM	1.62 µM	27.2	24.3	> 100 µM	28.8	18.7 µM	> 100 µM	> 100 µM	19.6	15.2	60.6	35.1	4.7	8.9	3.64	24.5	6.69
O=C1C=CC(=O)c2c(O)c3c(c(O)c21)C[C@H](O)[C@H](O)[C@@H]3O	4	8.02	–	–	4.85	–	5.38 µM	10.1	3.18 µM	–	13.2 µM	–	–	2.64	2.9	–	–	–	–	–
COc1ccc(/C=C2/SC(Nc3nc(-c4nc(NC5=NC(=O)/C(=C\c6ccc(OC)cc6)S5)sc4C)c(C)s3)=NC2=O)cc1	> 50	> 33.8	2.22 µM	0.397 µM	3.21	–	–	6.62	3.93 µM	> 25.9 µM	4.92 µM	7.52	2.79	15.4	> 21.9	0.572	0.32	0.282	2.14	0.485
Cc1cc(C)c(-c2c(N)cc(Br)cc2Br)c(N)c1	19.3	21.5	5.84 µM	–	19.6	6.25	21 µM	17.2	13.9 µM	19.1 µM	–	5.71	7.86	22.1	–	5.19	4.3	3.82	4.85	–
O=C1O/C(=C/c2ccccc2)C(c2ccccc2)=C1O	74.2	–	–	–	83.3	–	> 100 µM	33.8	80.9 µM	> 100 µM	94.3 µM	–	–	> 100	48.3	–	–	–	–	–
Cc1cn(Cc2ccc(C34CC5CC(CC(C5)C3)C4)c(O)c2)c(=O)[nH]c1=O	51.8	41.8	–	2.73 µM	21	6.78	23.7 µM	20.4	15.8 µM	24.2 µM	25.6 µM	6.45	12.7	–	6.53	1.79	7.34	4.37	8.04	12.9
